Source: patent publication US5922680A, “Stabilized composition for oral administration of peptides” (Ferring, B.V., priority 1997, dated 1999)

Details: pH 6.5
Method: Human gastro-intestinal juice was obtained from healthy male volunteers who had been fasting for 8 h. A tube was introduced intranasally after local anaesthesia with xylocaine, and gastric juice was collected. Thereafter one standardized meal was given 1 h before sampling of duodenal and distal jejunum juice and another the next morning before the collection of distal ileal juice. After centrifugation the gastric and intestinal juices were frozen in aliquots of 1 ml and stored at -20° C. […] The peptide or peptide analog (10 μl of 10 mM peptide in 0.9% aqueous NaCl) was added to 190 μl of undiluted juice at 37° C. Aliquots of 25 μl were withdrawn at intervals and mixed with 100 μl acetone to stop the reaction. After centrifugation for 10 min at 10,000 g, 10 μl of the supernatant was analyzed by reversed phase HPLC. […] Analysis was carried out in a Varian 5000 HPLC analyzer equipped with a UV-detector (220 nm). Column Bondapak TM C18 (3.9×300 mm), eluant MeOH/0.025 M NH4 Ac (isocratic conditions), flow rate 1 ml/min. […] Protein: Bio-Rad protein assay. pH: Orion model SA720; pH-paper Merck (Darmstadt), range 4.0-7.0.

NC(=O)CC[C@@H]1NC(=O)[C@H](Cc2ccccc2)NC(=O)[C@H](Cc2ccc(O)cc2)NC(=O)CCSSC[C@@H](C(=O)N2CCC[C@H]2C(=O)N[C@H](CCCN=C(N)N)C(=O)NCC(N)=O)NC(=O)[C@H](CC(N)=O)NC1=O [DDAVP, Mpa-Tyr-Phe-Gln-Asn-Cys-Pro-D-Arg-Gly-GlyNH2]
DDAVP degraded (to about 50%): about 50%
